Measurements from ChEMBL document CHEMBL3507680, “University of Dundee, Gates Library screen for HepG2 cell viability”.

Assay: Human HepG2 cell viability assay in 384 well format
Type: toxicity, cell-based
Set-up: dose 125 nL, time 70.5 hour; concentration not given beside the values
Conditions: HepG2 cells, read-out: Inhibition

O[C@@H]1CN(c2cnc3ccccc3n2)CC[C@H]1c1ccc2c(c1)OCO2
cytotoxicity at 70.5 h: 21%

Cc1ncsc1CCN(C)C(=O)c1ccc(Cn2cnnn2)cc1
cytotoxicity at 70.5 h: 3.1%

COc1cccc(CN2C[C@H]3CC[C@H]2C3)c1OCCN1CCOCC1
cytotoxicity at 70.5 h: -2.04%

Cc1cnc(N(C)CCCc2cnn(C)c2)nc1N(C)C
cytotoxicity at 70.5 h: 14.8%

CCn1nc(C)c(C(C)Nc2cc(C3CCNCC3)nc(C)n2)c1C (stereo unspecified)
cytotoxicity at 70.5 h: -23.1%

O=C(c1ccncc1)N1CCC(Oc2cccc(C(F)(F)F)c2)CC1
cytotoxicity at 70.5 h: -5.79%

Cc1ccc(C(=O)NCCC2CN(C3CCCC3)CCO2)c(C)c1 (stereo unspecified)
cytotoxicity at 70.5 h: -4.25%

Cc1cc(C(=O)N2C[C@H](CO)C[C@H](CN3CCOCC3)C2)cnc1C
cytotoxicity at 70.5 h: 14.5%

Cc1oc(-c2ccoc2)nc1CN1CCCCC1CCn1cccn1 (stereo unspecified)
cytotoxicity at 70.5 h: -3.32%

Cc1cccc(N2CCN(CCC(=O)NCc3ccc(C)s3)CC2)c1
cytotoxicity at 70.5 h: 20.7%

CCN(C)S(=O)(=O)N1C[C@@H]2CC[C@H](C1)N(Cc1cscn1)C2=O
cytotoxicity at 70.5 h: -8.95%

CC(C)Cc1cn(C2CCN(C(C)CC3CC3)CC2)nn1 (stereo unspecified)
cytotoxicity at 70.5 h: -0.853%

CNC(=O)c1n[nH]c2c1C(c1cccc3c1OC(C)(C)C3)CC(=O)N2 (stereo unspecified)
cytotoxicity at 70.5 h: -1.8%

CCc1nccn1CC(=O)N1CCN(C2CCc3ccccc3C2)CC1 (stereo unspecified)
cytotoxicity at 70.5 h: -13.3%

Cc1ccc(-c2ccnc(N[C@H]3COC[C@@H]3N3CCCCC3)n2)c(C)n1
cytotoxicity at 70.5 h: -11.2%

COc1ccc2c(CN3CCCN(Cc4ccncc4)CC3)n[nH]c2c1
cytotoxicity at 70.5 h: -1.17%

O=c1n(CC2CCCCO2)nc(CC2CCNCC2)n1-c1ccccc1 (stereo unspecified)
cytotoxicity at 70.5 h: -6.56%

CCCN(Cc1cccnc1)C(=O)C1CCS(=O)(=O)CC1
cytotoxicity at 70.5 h: 6.55%

Cn1c(Cn2ccnc2)nnc1C1CCCN(c2ncccn2)C1 (stereo unspecified)
cytotoxicity at 70.5 h: -9.36%

O=C(CCC1CCN(Cc2ccncc2)CC1)Nc1ccccc1Cl
cytotoxicity at 70.5 h: 0.0549%

O=C1NCC2(CCCN(C(=O)Nc3ccc4scnc4c3)CC2)O1 (stereo unspecified)
cytotoxicity at 70.5 h: -16.7%

COCCc1ncc(CN2C[C@H](C3CC3)[C@@H](N)C2)cn1
cytotoxicity at 70.5 h: -8.11%

Cc1cnc(C(=O)N2CCN(C(=O)CC(C)C)[C@@H]3CS(=O)(=O)C[C@@H]32)cn1
cytotoxicity at 70.5 h: -7.52%

CCOCCn1nc(C)cc1C(=O)N1CCC2(CC1)[C@H](O)C[C@@H]2OCC
cytotoxicity at 70.5 h: 0.508%

COc1cccc(CC2CN(C3CCCCC3)CCO2)c1 (stereo unspecified)
cytotoxicity at 70.5 h: 25.1%

N#Cc1ccccc1C(=O)N1C[C@@H](CN2CCOCC2)[C@@H](CO)C1
cytotoxicity at 70.5 h: -12%

CC(=O)Nc1ccsc1C(=O)Nc1cnc2n1CCCC2
cytotoxicity at 70.5 h: -4.21%

CC(=O)c1ccc(N2CCN(C(=O)c3cc(C(C)C)nn3C)CC2)cc1
cytotoxicity at 70.5 h: -14.7%

CCCOc1ccc(Cl)cc1CNc1ncnc2oc(C)nc12
cytotoxicity at 70.5 h: -6.3%

CN1CCN(S(=O)(=O)c2ccc3c(c2)CN(C(=O)C(C)(C)C)CC3)CC1
cytotoxicity at 70.5 h: -2.56%

Cc1nc(CN2CCCC(CCc3cccc(C(F)(F)F)c3)C2)co1 (stereo unspecified)
cytotoxicity at 70.5 h: -3.79%

CN1CCCN(C[C@@H]2CN(C(=O)CCc3cn[nH]c3)C[C@@H]2CO)CC1
cytotoxicity at 70.5 h: -3.81%

O=C(NC1CCCC1)c1cc(Cn2cnc3ccccc32)on1
cytotoxicity at 70.5 h: -1.14%

CCN(CC1CCCCO1)C(=O)CCNC(=O)c1ccccc1F (stereo unspecified)
cytotoxicity at 70.5 h: -11.6%

CN(C)c1ccccc1C(=O)N1CCCC(c2ccc(C(=O)O)cc2)C1 (stereo unspecified)
cytotoxicity at 70.5 h: -17.2%

COc1ccccc1-n1nc(CC(C)C)nc1Cc1nnc(N)s1
cytotoxicity at 70.5 h: 5.97%

COc1cccc2c1OCC(C(=O)NCCCn1nc(C)c(Cl)c1C)C2 (stereo unspecified)
cytotoxicity at 70.5 h: -7.76%

Cc1cccc(CN2C(=O)OCC2CO)c1F (stereo unspecified)
cytotoxicity at 70.5 h: 14.6%

CCCC(=O)N1CCC(N2CC[C@@](O)(CCOC)[C@H](C)C2)CC1
cytotoxicity at 70.5 h: -5%

CNc1nc(C(=O)NCC2CCOc3ccccc3C2)cs1 (stereo unspecified)
cytotoxicity at 70.5 h: 15.5%

CCc1ccc(CN2CCC(CNC(=O)c3ccc(C)nc3)C2)nc1 (stereo unspecified)
cytotoxicity at 70.5 h: 16%

CCC1(CO)CCCN(C(=O)c2cc(COc3ccccc3F)[nH]n2)C1 (stereo unspecified)
cytotoxicity at 70.5 h: -0.863%

CCc1c(O)nc(SCC(=O)N(CC)CC)n(C(C)CC)c1=O (stereo unspecified)
cytotoxicity at 70.5 h: -0.0297%

CCCNC(=O)c1ccc(S(=O)(=O)NCC2(COC)CCCC2)cc1
cytotoxicity at 70.5 h: -4.17%

CCc1c(O)nc(SC(C)CC)n(-c2ccccc2)c1=O (stereo unspecified)
cytotoxicity at 70.5 h: -7.78%

COc1cccc(-c2cnnc(N(C)CCC3CCCCO3)n2)c1 (stereo unspecified)
cytotoxicity at 70.5 h: 0.0165%

c1ccc(CCN2CCCC(Cn3ccnc3)C2)cc1 (stereo unspecified)
cytotoxicity at 70.5 h: -10.4%

CC(C)c1cc(CN(C)C(=O)CN2CCCCC2=O)no1
cytotoxicity at 70.5 h: 13.9%

Cc1nc(C)n(CC(C)C(=O)N2CCC(CN3CCOCC3)CC2)n1 (stereo unspecified)
cytotoxicity at 70.5 h: 4.58%

Cc1nc(O)cc(CN2C[C@H](NC(=O)C3CCCC3)[C@@H](C3CC3)C2)n1
cytotoxicity at 70.5 h: -9.17%

CN(C)CCCn1ccnc1C1CCN(c2cccc(C(=O)O)n2)CC1
cytotoxicity at 70.5 h: -5.15%

CCc1nn(C)c(Cl)c1CN1C[C@H](NC(=O)CCO)[C@@H](C(C)C)C1
cytotoxicity at 70.5 h: -5.11%

CSc1cccc(CN(C)C(=O)CN2CCN(c3ncccn3)CC2)c1
cytotoxicity at 70.5 h: -8.23%

O=C(c1ccccc1-c1nnn[nH]1)N1CCOC(C(F)(F)F)C1 (stereo unspecified)
cytotoxicity at 70.5 h: -9.42%

O=C1NCCCc2[nH]c(Cc3cccc(F)c3)nc21
cytotoxicity at 70.5 h: -8.57%

O=C(CN1CCCC1c1nc(-c2ccccn2)no1)N1CCNCC1 (stereo unspecified)
cytotoxicity at 70.5 h: -4.93%

Cc1cc(C(=O)N2CCCC3(C=Cc4ccccc4O3)CC2)cc(=O)[nH]1 (stereo unspecified)
cytotoxicity at 70.5 h: -7.57%

CCN(CC1CCOCC1)C(=O)C1CC(=O)N(Cc2cccnc2)C1 (stereo unspecified)
cytotoxicity at 70.5 h: -5.23%

O=C(CC1CCc2ccccc21)N1CCC(O)(Cn2ccnc2)CC1 (stereo unspecified)
cytotoxicity at 70.5 h: -5.64%

CCNc1ncc(C(=O)N[C@H]2CC[C@H](n3cnnc3)CC2)cn1
cytotoxicity at 70.5 h: -1.33%

Cc1sc2nc(CCN)nc(N3CCS(=O)(=O)CC3)c2c1C
cytotoxicity at 70.5 h: -0.146%

CCCN1CCN(C(=O)Nc2ccccc2Cl)[C@H]2CS(=O)(=O)C[C@H]21
cytotoxicity at 70.5 h: -4.21%

CCCc1cc(C(=O)N[C@H](C)[C@@H](O)c2ccc(O)cc2)n(C)n1
cytotoxicity at 70.5 h: -11.6%

COc1ccc(CCNC(=O)CN2CCOCS2(=O)=O)cc1
cytotoxicity at 70.5 h: -8.13%

CC(=O)N1CCC(NC(C)c2cnn(-c3ccc(F)cc3F)c2C)CC1 (stereo unspecified)
cytotoxicity at 70.5 h: -5.65%

COCCN1CC(Nc2nc(C(C)C)nc3c2cnn3C)CC1=O (stereo unspecified)
cytotoxicity at 70.5 h: -0.509%

Cc1nn(C)c(C)c1CN(C)C(C(=O)O)c1ccc(F)cc1F (stereo unspecified)
cytotoxicity at 70.5 h: -1.85%

CCC1CCC(NCCN2CCOCC2)CC1 (stereo unspecified)
cytotoxicity at 70.5 h: -6.57%

CC1CCCN(Cc2cccc(C(=O)Nc3nccs3)c2)C1 (stereo unspecified)
cytotoxicity at 70.5 h: -11.3%

Cc1cccnc1CNCC1(O)CCCN(CC2CCC2)C1=O (stereo unspecified)
cytotoxicity at 70.5 h: 2.29%

CN(CCNC(=O)c1cnc(-c2ccccc2)nc1)S(C)(=O)=O
cytotoxicity at 70.5 h: 5.47%

Cn1ncnc1-c1ccnc(NCc2ccccn2)n1
cytotoxicity at 70.5 h: 9.26%

O=C(CCN1CCCO1)N1CCCC(CO)(CCCc2ccccc2)C1 (stereo unspecified)
cytotoxicity at 70.5 h: -8.66%

O=C1OC2(CCN(C(=O)C3NCCc4[nH]cnc43)CC2)c2ccccc21 (stereo unspecified)
cytotoxicity at 70.5 h: -9.73%

Cc1cc(NC(C)c2nncn2C2CCCC2)n2nc(C)c(C)c2n1 (stereo unspecified)
cytotoxicity at 70.5 h: -12.4%

CC[C@H]1COCCN1C(=O)c1ccc(OC)c(N2CCOCC2)c1
cytotoxicity at 70.5 h: -10.3%

OCCN(Cc1ccccc1)Cc1ccsc1
cytotoxicity at 70.5 h: -9.98%

O=c1c(CN2CCOCC2)coc2ccc(Cl)cc12
cytotoxicity at 70.5 h: -8.39%

Cc1nc(CCN)cc(N2CCOc3ccc(Cl)cc3C2)n1
cytotoxicity at 70.5 h: -5.61%

CN1CCN(Cc2ccc(Cl)cc2)CC1C(=O)O (stereo unspecified)
cytotoxicity at 70.5 h: -6.51%

Cn1ncc2c(N3CCN(CCC(N)=O)CC3)nc(C3CCCC3)nc21
cytotoxicity at 70.5 h: -9.84%

O=c1c(CN2CCCCC2)coc2ccc(Cl)cc12
cytotoxicity at 70.5 h: -7.22%

COC(=O)c1ccc(CNC(=O)Cc2csc(C(C)=O)c2)cc1
cytotoxicity at 70.5 h: 4.17%

CCCc1nccn1-c1cccc(C(C)O)c1 (stereo unspecified)
cytotoxicity at 70.5 h: -2.3%

CNc1ncc(CN(C)c2nc(C)c3ccc(S(C)(=O)=O)cc3n2)cn1
cytotoxicity at 70.5 h: -6.87%

CCc1nc(C)c(CN2CCCC(c3nn(C)c(=O)n3CC)C2)[nH]1 (stereo unspecified)
cytotoxicity at 70.5 h: -6.96%

CCCn1ncc(C(=O)N2CCN(C3Cc4ccccc4C3)CC2)c1C
cytotoxicity at 70.5 h: -0.105%

CN(Cc1nc(-c2cccnc2)no1)C(=O)c1c2c(nn1C)CCCC2
cytotoxicity at 70.5 h: -1.52%

Cc1nccn1CCC(=O)N1CCCN(c2ccccc2)CC1
cytotoxicity at 70.5 h: -6.92%

COc1cc(C)c(C2CC(=O)NCc3nc4sccn4c32)cc1C (stereo unspecified)
cytotoxicity at 70.5 h: -18%

Cc1ocnc1C(=O)N1CCN(Cc2ccccc2)[C@@H]2CS(=O)(=O)C[C@@H]21
cytotoxicity at 70.5 h: -9.03%

O=C(c1scc2c1OCCO2)N1CCOC(CCc2ccccc2)C1 (stereo unspecified)
cytotoxicity at 70.5 h: 1.27%

CN(C)c1nc(NCCc2ccnn2C)ncc1F
cytotoxicity at 70.5 h: 23.5%

Cc1cc(C(=O)N2C[C@@H](C(=O)O)[C@H](C(C)C)C2)cs1
cytotoxicity at 70.5 h: -2.46%

O=C(C1CCC1)N1CCC(C(=O)N2CCC(c3ccc(F)cc3)C2)CC1 (stereo unspecified)
cytotoxicity at 70.5 h: 3.33%

CCCc1ccc(CN2CCN(c3ncccn3)[C@@H]3CS(=O)(=O)C[C@@H]32)o1
cytotoxicity at 70.5 h: -8.8%

COCCc1noc(Cn2ccc3ncccc3c2=O)n1
cytotoxicity at 70.5 h: -7.6%

Cc1nonc1C1CCCN1CCC(=O)N1CCc2ccccc2C1 (stereo unspecified)
cytotoxicity at 70.5 h: 24.4%

CCCn1ccnc1CN1CCC(Oc2cccc(F)c2)(C(=O)O)CC1
cytotoxicity at 70.5 h: -11%

CC(Cn1cnc2cn(C)nc2c1=O)Oc1cccnc1 (stereo unspecified)
cytotoxicity at 70.5 h: 20.4%

COc1cccc(CN2CCCC3(CCN(C(CO)CO)C3)C2)c1 (stereo unspecified)
cytotoxicity at 70.5 h: -7.1%

CC(O)c1cn(CC2CCN(C(=O)c3cccc(N(C)C)c3)CC2)nn1 (stereo unspecified)
cytotoxicity at 70.5 h: -4.18%

CC(C)(C)N1CC(C(=O)NCc2nc(C3CCCCC3)no2)CC1=O (stereo unspecified)
cytotoxicity at 70.5 h: -4.38%

CS(=O)(=O)CCC(=O)N1C[C@@H]2CC[C@H](C1)N(Cc1ccccn1)C2=O
cytotoxicity at 70.5 h: 14.6%

Cc1cccnc1NCCNc1cc(C(C)C)nc2ccnn12
cytotoxicity at 70.5 h: -11.6%

CN(C)c1ccc(CN2CCC(C(O)Cc3ccccc3)CC2)cn1 (stereo unspecified)
cytotoxicity at 70.5 h: -3.93%

c1cn(Cc2nnc(C3CCN(C4CCNCC4)CC3)n2C2CC2)cn1
cytotoxicity at 70.5 h: -1.79%

CN(C(=O)CSc1ccccn1)C1CCCN(CCc2ccccc2)C1 (stereo unspecified)
cytotoxicity at 70.5 h: -7.26%

CCCN1CC2(CCN(c3ccc(C(C)=O)cn3)CC2)CC1C(=O)O (stereo unspecified)
cytotoxicity at 70.5 h: -9.66%

CCC1C=CCN1C(=O)c1cc(COc2ccccc2OC)[nH]n1 (stereo unspecified)
cytotoxicity at 70.5 h: -11.7%

COc1ccc(CN2CCN(C3CCc4ccccc4C3)CC2)cc1O (stereo unspecified)
cytotoxicity at 70.5 h: 3.2%
